From patent US20240368133A1, “Compounds for the Treatment of Pain, in Particular, Neuropathic Pain, and/or Other Diseases or Disorders that are Associated with AT2R and/or AT2R Mediated Signaling” (Confo Therapeutics N.V., priority 2021, published 2024) come the findings set out here.

As a reminder, the inhibition is the relative decrease from the control value, in per cent.

One data set addresses CYP3A4 (Homo sapiens (Human), UniProt P08684). Nature of the data set: CYP inhibition, CYP3A4. Format: in vitro ADME. The note with it: test compound at 10 μM. As for the experimental part:
The aim of this assay is to determine the inhibitory potential of a test compound. A major concern for drug-drug-interaction is cytochrome P450 inhibition. Reversible CYP inhibition was determined in human liver microsomes using specific probe substrates for human cytochrome P450 isoenzymes CYP1A2, 2C9, 2C19, 2D6 and 3A4.
The potential for CYP450 inhibition was assessed by performing in vitro inhibition studies using fluorogenic CYP450 substrates with the corresponding CYP450 enzymes and NADPH regeneration system (Vivid CYP450 Screening Kits) with some minor changes to the manufacturer's protocols. The fluorescent signal produced from reaction is directly proportional to the cytochrome P450 activity. In the cases when tested compounds interfere with the CYP450 enzyme-substrate reaction, the fluorescent signal decreases. In brief, the tested compounds were first dissolved in DMSO at 100× concentration (1 mM), and diluted in buffer to 2.5× concentration (25 μM). Then the 2.5× compound solutions were mixed with the Master Pre-mix consisting of Human CYP450+Oxidoreductase and NADP+Regeneration System (glucose-6-phosphate and glucose-6-phosphate dehydrogenase). After 10 minutes pre-incubation, the enzymatic reaction was initiated by the addition of a mix of NADPH and the appropriate CYP450 substrates. The plate was incubated for the desired reaction time (25 min for CYP1A2, CYP2C9, CYP2D6, and CYP3A4, 60 min for CYP2C19) after which Stop Reagent was added and fluorescence measured using SpectraMax Paradigm Multi-Mode Microplate Reader. All test points were performed in quadruplicates at concentration 10 μM (1% DMSO).
A 10 mM stock solution of test compound is prepared in methanol. This stock is further serially diluted 1:3 in methanol and then added to mixture containing 50 mM potassium phosphate buffer pH7.4, human liver microsomes (BD Gentest) and probe substrate. After pre-warming 5 min at 37° C., the reaction is started by adding co-factor mix ([…] glucose-6-phosphate, 1.7 mg/mL NADP, 6 U/mL of glucose-6-phosphate dehydrogenase), resulting in a final concentration of test compound at 10 μM (2% MeOH).
Final concentrations of co-factor mix components are as follows: 1.56 mg/mL glucose-6-phosphate, 0.34 mg/mL NADP, 1.2 U/mL of glucose-6-phosphate dehydrogenase.
After incubation at 37° C., the reaction (aliquot of 50 μL) is terminated with 150 μL CH3CN:MeOH (2:1) solution with internal standard (warfarin for 2C9, diclofenac for all other tested isoforms). Samples are centrifuged and the supernatant fractions analyzed by LC-MS/MS.
The instrument responses (ratio of test compound and internal standard peak areas) are referenced to those for solvent controls (assumed as 100%) in order to determine the percentage reduction in probe metabolism. Percent of control activity vs. concentration plots are generated and fitted using GraphPad Prism software to generate IC50.

The nature of data set [1]: Metabolic stability in hepatocytes, rat. The settings on record: hepatocytes (cryopreserved), read-out: Rat Clint (μL/min/10^6 cells). Type of data set: in vitro ADME. As for the experimental part:
The aim of this assay is to determine the metabolic stability of the compound in hepatocytes (cryopreserved) of different species (mouse CD1, rat Sprague Dawley, dog Beagle). Low hepatocyte stability may result in the formation of unwanted metabolites, high clearance, and therefore is not desirable. The decrease in parent was assessed by measuring the percentage remaining by LC-MS/MS analysis. The batches of hepatocytes were tested for quality control using Testosterone, Umbelliferone and Caffeine as reference compounds.
A 10 mM stock solution of test compound in DMSO was first diluted in DMSO to 3 mM, and then in modified Krebs-Henseleit buffer (Sigma, K3753) to 5 μM. This compound dilution was added to a suspension of pooled cryopreserved hepatocytes (BioIVT) at 37° C. under gentle shaking. Final reaction conditions were: 1 μM of test compound, <0.1% DMSO, 0.5 million viable hepatocytes/mL, and 75 μL incubation volume.
After 0, 10, 20, 45, 90, 120 and 180 min of incubation, the reaction was terminated with 3 volumes of MeCN:MeOH (2:1) containing diclofenac as analytical internal standard. Samples were mixed, centrifuged and the supernatant analyzed by LC-MS/MS (systems API4000). The instrument responses (ratios of test compound and internal standard peak areas) were referenced to the zero time point samples (considered as 100%) in order to determine the percentage of compound remaining. Plots of percentage compound remaining were used to determine the intrinsic clearance in the hepatocyte incubations.
Testosterone (1 μM) and Umbelliferone (1 μM) and Caffeine (1 μM) were used as reference compounds, being unstable and stable compounds respectively. If the hepatocyte stability values for these controls are not in the range determined by the historical data, the assay is not validated.

[2] abbreviates: human, probe not marked, read-out: % Inhibition (PIN) 3A4.
[3] abbreviates: pH 7.4, probe substrate Midazolam (M), human liver microsomes, read-out: % Inhibition (PIN) 3A4.
[4] abbreviates: pH 7.4, probe substrate Testosterone (T), human liver microsomes, read-out: % Inhibition (PIN) 3A4 (T).

Molecules are shown by their SMILES. Read-outs that look alike come from different tables or passages of the source.

CYP3A4, sequence (P08684 whole entry): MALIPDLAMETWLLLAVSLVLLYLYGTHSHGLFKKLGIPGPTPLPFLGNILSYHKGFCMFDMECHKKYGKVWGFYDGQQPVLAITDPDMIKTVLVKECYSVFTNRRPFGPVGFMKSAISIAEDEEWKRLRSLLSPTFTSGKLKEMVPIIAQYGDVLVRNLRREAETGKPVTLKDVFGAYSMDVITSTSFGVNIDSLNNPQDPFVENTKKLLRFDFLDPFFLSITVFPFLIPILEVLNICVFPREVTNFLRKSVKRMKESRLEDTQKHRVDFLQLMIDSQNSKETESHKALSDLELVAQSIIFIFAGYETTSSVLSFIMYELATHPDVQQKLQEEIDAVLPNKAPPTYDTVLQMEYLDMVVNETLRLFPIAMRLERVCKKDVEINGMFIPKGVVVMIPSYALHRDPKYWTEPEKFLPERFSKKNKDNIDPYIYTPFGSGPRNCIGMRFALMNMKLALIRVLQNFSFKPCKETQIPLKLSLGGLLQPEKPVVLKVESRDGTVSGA

For the compound `CCCCNC(=O)NS(=O)(=O)c1ccc(C(F)(F)F)cc1N1CCN(Cc2nc3ccccc3n2C)CC1` [Compound A-10, 1-butyl-3-[2-[4-[(1-methylbenzimidazol-2-yl)methyl]piperazin-1-yl]-4-(trifluoromethyl)phenyl]sulfonyl-urea], the inhibition at 10 µM at CYP3A4 (setting [2]) was 54.2%.
Same read-out and setting: for `CC(C)Oc1ccc(-c2nn[nH]n2)c(N2CCN(Cc3nc4ccccc4n3C)CC2)c1` [Compound A-24, 2-[[4-[5-isopropoxy-2-(2H-tetrazol-5-yl)phenyl]piperazin-1-yl]methyl]-1-methyl-benzimidazole] the value was 59.5%; for `CC(C)Cc1ccc(-c2nn[nH]n2)c(N2CCN(Cc3nc4ccccc4c(=O)[nH]3)CC2)c1` [Compound A-31, 2-[[4-[5-isobutyl-2-(2H-tetrazol-5-yl)phenyl]piperazin-1-yl]methyl]-3H-quinazolin-4-one], 94.6%; for `CC(C)Oc1ccc(-c2nn[nH]n2)c(N2CCN(Cc3nc4ccccc4c(=O)[nH]3)CC2)c1` [Compound A-32], 68.2%.
As for `Cc1cc(CN2CCN(c3cc(CC(C)C)ccc3-c3nn[nH]n3)CC2)no1` [Compound A-82, 3-[[4-[5-isobutyl-2-(2H-tetrazol-5-yl)phenyl]piperazin-1-yl]methyl]-5-methyl-isoxazole], the inhibition at 10 µM at CYP3A4 (setting [2]) worked out at 50.6%.
On to `CC(C)Cc1ccc(-c2nn[nH]n2)c(N2CCN(Cc3nccn3C)CC2)c1` [Compound A-83, 1-[5-isobutyl-2-(2H-tetrazol-5-yl)-phenyl]-4-[(1-meth-ylimidazol-2-yl)-methyl]piperazine], for which, on CYP3A4 (setting [2]), the inhibition at 10 µM was found to be 38.7%.
Take `CC(C)Cc1ccc(-c2nn[nH]n2)c(N2CCN(Cc3ccnn3C)CC2)c1` [Compound A-84, 1-[5-isobutyl-2-(2H-tetrazol-5-yl)phenyl]-4-[(1-methylpyrazol-5-yl)methyl]piperazine]: the inhibition at 10 µM at CYP3A4 (setting [2]) came to 49.1%.
The same measure, in the same setting: with `CC(C)Cc1ccc(-c2nn[nH]n2)c(N2CCN(Cc3ncccn3)CC2)c1` [Compound A-88] the figure was 21.1%.
Still for that read-out and setting: for `CC(C)Cc1ccc(-c2nn[nH]n2)c(N2CCN(Cc3cccnn3)CC2)c1` [Compound A-90, 3-[[4-[5-isobutyl-2-(2H-tetrazol-5-yl)phenyl]piperazin-1-yl]methyl]pyridazine] the value was 55.3%.
Consider `CC(C)Cc1cc(F)c(-c2nn[nH]n2)c(N2CCN(Cc3cccnn3)C(C)C2)c1` (stereo not shown) [Compound A-173, 3-[[4-[3-fluoro-5-isobutyl-2-(2H-tetrazol-5-yl)phenyl]-2-methyl-piperazin-1-yl]methyl]pyridazine], for which the inhibition at 10 µM at CYP3A4 (setting [2]) was 29.4%. In addition, the hepatocyte CLint in data set [1] was 2 µL/min/1e6 cells.
Consider `CC(C)Cc1cc(F)c(-c2nn[nH]n2)c(N2CCN(Cc3cccnn3)[C@@H](C)C2)c1` [Compound A-174, 3-[[(2S)-4-[3-fluoro-5-isobutyl-2-(2H-tetrazol-5-yl)phenyl]-2-methyl-piperazin-1-yl]methyl]pyridazine], for which the inhibition at 10 µM on CYP3A4 (setting [2]) worked out at 36%. Besides, the hepatocyte CLint in data set [1] came out at 10.5 µL/min/1e6 cells.
The corresponding values for `CCC1CN(c2cc(CC(C)C)cc(F)c2-c2nn[nH]n2)CCN1Cc1cccnn1` (stereo not shown) [Compound A-178, 3-[[2-ethyl-4-[3-fluoro-5-isobutyl-2-(2H-tetrazol-5-yl)phenyl]piperazin-1-yl]methyl]pyridazine] are 8% and 0.2 µL/min/1e6 cells.
Regarding `CCC1CN(Cc2cccnn2)CCN1c1cc(CC(C)C)cc(F)c1-c1nn[nH]n1` (stereo not shown) [Compound A-181, 3-[[3-ethyl-4-[3-fluoro-5-isobutyl-2-(2H-tetrazol-5-yl)phenyl]piperazin-1-yl]methyl]pyridazine], the hepatocyte CLint in data set [1] is 1 µL/min/1e6 cells.
On the same count and under the same terms, for `CC(C)Cc1cc(F)c(-c2nn[nH]n2)c(N2CC(C)N(Cc3cccnn3)CC2C)c1` (stereo not shown) [Compound A-183, 3-[[4-[3-fluoro-5-isobutyl-2-(2H-tetrazol-5-yl)phen-yl]-2,5-dimethyl-piperazin-1-yl]-methyl]pyridazine] the value was 2.6 µL/min/1e6 cells.
As to `CC(C)Cc1cc(F)c(-c2nn[nH]n2)c(N2CCN(Cc3ccccn3)[C@@H](C)C2)c1` [Compound A-217, (2S)-4-[3-fluoro-5-isobutyl-2-(2H-tetrazol-5-yl)phenyl]-2-methyl-1-(2-pyridylmethyl)piperazine], the inhibition at 10 µM on CYP3A4 (setting [3]) amounted to 73%; at CYP3A4 (setting [4]) it was 25%. Also, the hepatocyte CLint in data set [1] worked out at 8.7 µL/min/1e6 cells.
In the case of `Cc1cnc(CN2CCN(c3cc(CC(C)C)cc(F)c3-c3nn[nH]n3)C[C@@H]2C)s1` [Compound A-223, 2-[[(2S)-4-[3-fluoro-5-isobutyl-2-(2H-tetrazol-5-yl)phenyl]-2-methyl-piperazin-1-yl]methyl]-5-methyl-thiazole], the inhibition at 10 µM on CYP3A4 (setting [3]) was 82%; on CYP3A4 (setting [4]), 28%.
